Experimental data reported in patent US10980805B2, “Aza-pyridone compounds and uses thereof” (Janssen BioPharma, Inc., priority 2013, dated 2021).
pEC50, pIC50: −log10 of the molar value.

How the values were obtained:
[1] = test system: Influenza strain A549_A/WSN/33 (H1N1); test: Influenza antiviral assay (neuraminidase fluorescence readout); format: cell-based, Influenza virus; details: Influenza A virus, read-out: % Inhibition (EC50 class, Table 2)
[2] = biological target: Full length EN PA (influenza PA endonuclease) (Influenza A virus, UniProt P15659); test: EN PA FRET inhibition assay; format: biochemical; details: FRET probe, mean of a minimum of two independent experiments, read-out: Potency (IC50 class, Table 3)

## CCN1C[C@@H](C(c2cccc(C)c2)c2cccc(C)c2)n2ncc(=O)c(O)c2C1=O [Compound 36-B]
[1]
  pEC50: > 4.70
[2]
  pIC50: ≤ 6.00

## CCN1CC(C(c2cccc(C)c2)c2cccc(C)c2)n2ncc(=O)c(O)c2C1=O (stereo not drawn) [Compound 36]
[1]
  pEC50: > 4.70
[2]
  pIC50: > 6.60

## CCCN1C[C@H](C(c2ccccc2)c2ccccc2)n2ncc(=O)c(O)c2C1=O [Compound 37-A]
[1]
  pEC50: > 4.70
[2]
  pIC50: > 6.60

## CN1CC(C(c2ccc(F)cc2)c2ccc(F)cc2)n2ncc(=O)c(O)c2C1=O (stereo not drawn) [Compound 38]
[1]
  pEC50: > 4.70
[2]
  pIC50: > 6.60

## CCN1C[C@@H](C(c2cccc(Cl)c2)c2cccc(Cl)c2)n2ncc(=O)c(O)c2C1=O [Compound 39-B]
[1]
  pEC50: > 4.70
[2]
  pIC50: 6.00 to 6.60

## CCN1CC(C(c2cccc(Cl)c2)c2cccc(Cl)c2)n2ncc(=O)c(O)c2C1=O (stereo not drawn) [Compound 39]
[1]
  pEC50: > 4.70
[2]
  pIC50: > 6.60

## CN1CC(C(c2ccccc2)c2ccc(F)cc2)n2ncc(=O)c(O)c2C1=O (stereo not drawn) [Compound 40]
[1]
  pEC50: > 4.70
[2]
  pIC50: > 6.60

## CC(C)N1CC(C(c2cccc(F)c2)c2cccc(F)c2)n2ncc(=O)c(O)c2C1=O (stereo not drawn) [Compound 41]
[1]
  pEC50: > 4.70
[2]
  pIC50: > 6.60

## CN1C[C@H](C2c3ccccc3CCc3cccnc32)n2ncc(=O)c(O)c2C1=O (stereo partly drawn) [Compound 42-A]
[1]
  pEC50: > 4.70
[2]
  pIC50: > 6.60

## CN1C[C@@H](C2c3ccccc3CCc3cccnc32)n2ncc(=O)c(O)c2C1=O (stereo partly drawn) [Compound 42-B]
[1]
  pEC50: 4.00 to 4.70
[2]
  pIC50: 6.00 to 6.60

## CN1CC(C2c3ccccc3CCc3cccnc32)n2ncc(=O)c(O)c2C1=O (stereo not drawn) [Compound 42]
[1]
  pEC50: > 4.70
[2]
  pIC50: > 6.60

## CN1C[C@H](C2c3cc(F)ccc3CCc3ccc(F)cc32)n2ncc(=O)c(O)c2C1=O [Compound 45-A]
[1]
  pEC50: > 4.70
[2]
  pIC50: > 6.60

## CN1C[C@@H](C2c3cc(F)ccc3CCc3ccc(F)cc32)n2ncc(=O)c(O)c2C1=O [Compound 45-B]
[1]
  pEC50: 4.00 to 4.70
[2]
  pIC50: > 6.60

## CN1CC(C2c3cc(F)ccc3CCc3ccc(F)cc32)n2ncc(=O)c(O)c2C1=O (stereo not drawn) [Compound 45]
[1]
  pEC50: > 4.70
[2]
  pIC50: > 6.60

## CN1C[C@@H](C2c3ccc(Cl)cc3CCc3cc(Cl)ccc32)n2ncc(=O)c(O)c2C1=O [Compound 46-B]
[1]
  pEC50: 4.00 to 4.70
[2]
  pIC50: > 6.60

## CC(C)N1CC(C(c2ccccc2)c2cccc(F)c2)n2ncc(=O)c(O)c2C1=O (stereo not drawn) [Compound 47]
[1]
  pEC50: > 4.70
[2]
  pIC50: > 6.60

## Cc1cccc(C(c2cccc(C)c2)C2CN(C(C)C)C(=O)c3c(O)c(=O)cnn32)c1 (stereo not drawn) [Compound 48]
[1]
  pEC50: > 4.70
[2]
  pIC50: > 6.60

## CCN1CC(C(c2ccccc2)c2cccc(C)c2)n2ncc(=O)c(O)c2C1=O (stereo not drawn) [Compound 49]
[1]
  pEC50: > 4.70
[2]
  pIC50: > 6.60

## Cc1cccc(C(c2ccccc2)C2CN(C(C)C)C(=O)c3c(O)c(=O)cnn32)c1 (stereo not drawn) [Compound 50]
[1]
  pEC50: > 4.70
[2]
  pIC50: > 6.60

## CC(C)N1C[C@H](C2c3cccc(F)c3CCc3c(F)cccc32)n2ncc(=O)c(O)c2C1=O [Compound 51-A]
[1]
  pEC50: > 4.70
[2]
  pIC50: > 6.60

## CC(C)N1CC(C2c3cccc(F)c3CCc3c(F)cccc32)n2ncc(=O)c(O)c2C1=O (stereo not drawn) [Compound 51]
[1]
  pEC50: > 4.70
[2]
  pIC50: > 6.60

## CN1C[C@@H](C2c3cc(Cl)ccc3CCc3ccc(Cl)cc32)n2ncc(=O)c(O)c2C1=O [Compound 52-A]
[1]
  pEC50: > 4.70
[2]
  pIC50: > 6.60

## CN1C[C@H](C2c3cc(Cl)ccc3CCc3ccc(Cl)cc32)n2ncc(=O)c(O)c2C1=O [Compound 52-B]
[1]
  pEC50: > 4.70
[2]
  pIC50: > 6.60

## CN1CC(C2c3cc(Cl)ccc3CCc3ccc(Cl)cc32)n2ncc(=O)c(O)c2C1=O (stereo not drawn) [Compound 52]
[1]
  pEC50: > 4.70
[2]
  pIC50: > 6.60

## COCCN1C[C@H](C(c2ccccc2)c2ccccc2)n2ncc(=O)c(O)c2C1=O [Compound 53-A]
[1]
  pEC50: > 4.70
[2]
  pIC50: > 6.60

## CC(C)Oc1cccc(C(c2ccccc2)[C@H]2CN(C)C(=O)c3c(O)c(=O)cnn32)c1 (stereo partly drawn) [Compound 54]
[1]
  pEC50: 4.00 to 4.70
[2]
  pIC50: > 6.60

## CN1CC(C(c2ccccc2)c2cccc(OCC3CC3)c2)n2ncc(=O)c(O)c2C1=O (stereo not drawn) [Compound 55]
[1]
  pEC50: 4.00 to 4.70
[2]
  pIC50: > 6.60

## CN1CC(C2c3cc(F)ccc3CCc3c(F)cccc32)n2ncc(=O)c(O)c2C1=O (stereo not drawn) [Compound 56]
[1]
  pEC50: > 4.70
[2]
  pIC50: > 6.60

## CN1CC(C2c3ccccc3COc3ccccc32)n2ncc(=O)c(O)c2C1=O (stereo not drawn) [Compound 57]
[1]
  pEC50: > 4.70
[2]
  pIC50: > 6.60

## CN1CC(C2c3ccc(F)cc3CCc3c(F)cccc32)n2ncc(=O)c(O)c2C1=O (stereo not drawn) [Compound 59-A]
[1]
  pEC50: > 4.70
[2]
  pIC50: > 6.60

## CN1CC(C(c2ccc(Cl)cc2)c2cccc(Cl)c2)n2ncc(=O)c(O)c2C1=O (stereo not drawn) [Compound 60]
[1]
  pEC50: > 4.70
[2]
  pIC50: > 6.60

## CN1CC(C(c2ccc(F)cc2)c2cccc(Cl)c2)n2ncc(=O)c(O)c2C1=O (stereo not drawn) [Compound 61]
[1]
  pEC50: > 4.70
[2]
  pIC50: > 6.60

## CN1CC(C(c2cccc(Cl)c2)c2ccccc2F)n2ncc(=O)c(O)c2C1=O (stereo not drawn) [Compound 62]
[1]
  pEC50: > 4.70
[2]
  pIC50: > 6.60

## O=C1c2c(O)c(=O)cnn2[C@@H](C(c2ccccc2)c2ccccc2)CN1C1CCOCC1 [Compound 63-A]
[1]
  pEC50: > 4.70
[2]
  pIC50: > 6.60

## O=C1c2c(O)c(=O)cnn2[C@H](C(c2ccccc2)c2ccccc2)CN1C1CCOCC1 [Compound 63-B]
[1]
  pEC50: > 4.70
[2]
  pIC50: 6.00 to 6.60

## O=C1c2c(O)c(=O)cnn2C(C(c2ccccc2)c2ccccc2)CN1C1CCOCC1 (stereo not drawn) [Compound 63]
[1]
  pEC50: > 4.70
[2]
  pIC50: > 6.60

## CN1CC(C(c2ccccc2)c2cccc(O)c2)n2ncc(=O)c(O)c2C1=O (stereo not drawn) [Compound 64]
[1]
  pEC50: > 4.70
[2]
  pIC50: > 6.60

## CC(C)C(=O)Oc1c2n(ncc1=O)[C@@H](C1c3ccccc3CCc3ccccc31)CN(C)C2=O [Compound 65-A]
[1]
  pEC50: > 4.70
[2]
  pIC50: > 6.60

## CCN1C[C@H]([C@@H](c2ccccc2)c2cccc(Cl)c2)n2ncc(=O)c(OC(=O)C(C)C)c2C1=O [Compound 67-A]
[1]
  pEC50: > 4.70
[2]
  pIC50: > 6.60

## CC(C)N1C[C@@H](C(c2cccc(Cl)c2)c2cccc(Cl)c2)n2ncc(=O)c(O)c2C1=O [Compound 68-B]
[1]
  pEC50: > 4.70
[2]
  pIC50: 6.00 to 6.60

## CC(C)C(=O)Oc1c2n(ncc1=O)[C@@H](C(c1ccccc1)c1ccccc1)CN(C(C)C)C2=O [Compound 69-A]
[1]
  pEC50: > 4.70
[2]
  pIC50: > 6.60

## CC(C)C(=O)Oc1c2n(ncc1=O)[C@@H](C(c1cccc(F)c1)c1cccc(F)c1)CN(C(C)C)C2=O [Compound 70-A]
[1]
  pEC50: > 4.70
[2]
  pIC50: > 6.60

## CN1C[C@H]([C@@H]2c3cc(F)ccc3CCc3c(F)cccc32)n2ncc(=O)c(O)c2C1=O [Compound 71-A]
[1]
  pEC50: > 4.70
[2]
  pIC50: > 6.60

## CN1C[C@H]([C@H]2c3cc(F)ccc3CCc3c(F)cccc32)n2ncc(=O)c(O)c2C1=O [Compound 71-B]
[1]
  pEC50: > 4.70
[2]
  pIC50: > 6.60

## CN1C[C@@H](C2c3cc(F)ccc3CCc3c(F)cccc32)n2ncc(=O)c(O)c2C1=O (stereo partly drawn) [Compound 71]
[1]
  pEC50: 4.00 to 4.70
[2]
  pIC50: 6.00 to 6.60

## CCN1C[C@H](C(c2cccc(F)c2)c2cccc(F)c2)n2ncc(=O)c(OC(=O)C(C)C)c2C1=O [Compound 72-A]
[1]
  pEC50: > 4.70
[2]
  pIC50: > 6.60

## CCCN1C[C@H](C(c2cccc(F)c2)c2cccc(F)c2)n2ncc(=O)c(O)c2C1=O [Compound 74-A]
[1]
  pEC50: > 4.70
[2]
  pIC50: > 6.60

## O=C1c2c(O)c(=O)cnn2[C@@H](C(c2cccc(F)c2)c2cccc(F)c2)CN1Cc1ccccc1 [Compound 75-A]
[1]
  pEC50: > 4.70
[2]
  pIC50: > 6.60

## CC(C)N1CC(C(c2ccccc2)c2cccc(-c3ccccc3)c2)n2ncc(=O)c(O)c2C1=O (stereo not drawn) [Compound 78]
[1]
  pEC50: > 4.70
[2]
  pIC50: > 6.60

## CCN1C[C@H](C(c2ccccc2)c2cccc(Cl)c2)n2ncc(=O)c(OC(=O)c3cccnc3)c2C1=O (stereo partly drawn) [Compound 79-A]
[1]
  pEC50: > 4.70
[2]
  pIC50: > 6.60

## CCCN1C[C@H](C(c2cccc(F)c2)c2cccc(F)c2)n2ncc(=O)c(OC(=O)C(C)C)c2C1=O [Compound 80-A]
[1]
  pEC50: > 4.70
[2]
  pIC50: > 6.60

## CN1C[C@H](C2c3ccc(F)cc3CCc3c(F)cccc32)n2ncc(=O)c(O)c2C1=O (stereo partly drawn) [Compound 81-A]
[1]
  pEC50: > 4.70
[2]
  pIC50: > 6.60

## CN1C[C@@H](C2c3ccc(F)cc3CCc3c(F)cccc32)n2ncc(=O)c(O)c2C1=O (stereo partly drawn) [Compound 81-B]
[1]
  pEC50: 4.00 to 4.70
[2]
  pIC50: > 6.60

## CN1C[C@H](C2c3cccc(F)c3CCc3c(F)cccc32)n2ncc(=O)c(O)c2C1=O [Compound 83-A]
[1]
  pEC50: > 4.70
[2]
  pIC50: > 6.60

## CN1C[C@@H](C2c3cccc(F)c3CCc3c(F)cccc32)n2ncc(=O)c(O)c2C1=O [Compound 83-B]
[1]
  pEC50: 4.00 to 4.70
[2]
  pIC50: 6.00 to 6.60

## CN1CC(C2c3cccc(F)c3CCc3c(F)cccc32)n2ncc(=O)c(O)c2C1=O (stereo not drawn) [Compound 83]
[1]
  pEC50: > 4.70
[2]
  pIC50: > 6.60

## CCCN1C[C@H](C(c2cccc(Cl)c2)c2cccc(Cl)c2)n2ncc(=O)c(O)c2C1=O [Compound 84-A]
[1]
  pEC50: > 4.70
[2]
  pIC50: > 6.60

## CCOc1c2n(ncc1=O)[C@@H](C(c1cccc(F)c1)c1cccc(F)c1)CN(CC)C2=O [Compound 85-A]
[1]
  pEC50: 4.00 to 4.70
[2]
  pIC50: ≤ 6.00

## CC(C)CN1C[C@H](C(c2cccc(F)c2)c2cccc(F)c2)n2ncc(=O)c(O)c2C1=O [Compound 86-A]
[1]
  pEC50: > 4.70
[2]
  pIC50: > 6.60

## CCCCN1C[C@H](C(c2cccc(F)c2)c2cccc(F)c2)n2ncc(=O)c(O)c2C1=O [Compound 87-A]
[1]
  pEC50: > 4.70
[2]
  pIC50: > 6.60

## CCN1C[C@H](C(c2cccc(F)c2)c2cccc(F)c2)n2ncc(=O)c(OCOC(=O)Oc3ccc([N+](=O)[O-])cc3C)c2C1=O [Compound 88-A]
[1]
  pEC50: > 4.70
[2]
  pIC50: 6.00 to 6.60

## CN1C[C@H](C2c3ccc(F)cc3CCc3cc(F)ccc32)n2ncc(=O)c(O)c2C1=O [Compound 89-A]
[1]
  pEC50: > 4.70
[2]
  pIC50: > 6.60

## CN1C[C@@H](C2c3ccc(F)cc3CCc3cc(F)ccc32)n2ncc(=O)c(O)c2C1=O [Compound 89-B]
[1]
  pEC50: > 4.70
[2]
  pIC50: > 6.60
